Several values for one entry are separate records, joined by “and”; a condition that tells them apart may be missing. Identical values can stand only once.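 Dose response: 5 concentrations. Exposure: 48 h. Format: 96-well plates. Endpoint: linear interpolation; highest concentration if not reached. GI50: concentration for 50% inhibition of growth. TGI: concentration producing complete growth inhibition.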
Legend:
Experiment in all cases: NCI tumour cell line growth inhibition, 48 h
NCI-H23 lung = system: NCI-H23 lung
HOP-92 NSCLC = system: HOP-92 NSCLC
HCT-15 colon = system: HCT-15 colon
DU-145 prostate = system: DU-145 prostate
MCF7 breast = system: MCF7 breast
KM12 colon = system: KM12 colon
SK-MEL-2 melanoma = system: SK-MEL-2 melanoma
NCI/ADR-RES ovarian = system: NCI/ADR-RES ovarian
DLD-1 colon = system: DLD-1 colon
LXFL 529 NSCLC = system: LXFL 529 NSCLC

SMILES	GI50 (NCI-H23 lung)	TGI (NCI-H23 lung)	GI50 (HOP-92 NSCLC)	TGI (HOP-92 NSCLC)	GI50 (HCT-15 colon)	TGI (HCT-15 colon)	GI50 (DU-145 prostate)	TGI (DU-145 prostate)	GI50 (MCF7 breast)	TGI (MCF7 breast)	GI50 (KM12 colon)	TGI (KM12 colon)	GI50 (SK-MEL-2 melanoma) [µM]	TGI (SK-MEL-2 melanoma) [µM]	GI50 (NCI/ADR-RES ovarian)	TGI (NCI/ADR-RES ovarian)	GI50 (DLD-1 colon) [µM]	TGI (DLD-1 colon) [µM]	GI50 (LXFL 529 NSCLC) [µM]	TGI (LXFL 529 NSCLC) [µM]
CCCCCCCC(=O)SCC/C=C/[C@@H]1CC(=O)NCc2cc(ccn2)C2=N[C@@](C)(CS2)C(=O)N[C@@H](C(C)C)C(=O)O1	0.0394 µM	> 33.3 µM	0.0268 µM	0.214 µM	0.141 µM	> 33.3 µM	0.0138 µM	> 33.3 µM	0.0377 µM	> 33.3 µM	0.0169 µM	2.41 µM	0.015	0.595	0.241 µM	> 33.3 µM				
Cc1cc(/C=C/c2ccc3cc(N(C)C)ccc3[n+]2C)c(C)n1-c1ccccc1	0.082 µM	1.76 µM	0.193 µM	1.33 µM	1.31 µM	6.3 µM	0.175 µM	0.846 µM	0.169 µM	3.37 µM	0.158 µM	0.843 µM	0.27	1.06	1.67 µM	13.4 µM				
[Cl-].[La+3].[O-]/N=C(\c1ccccc1)c1ccccn1.[O-]/N=C(\c1ccccc1)c1ccccn1.[O-]/N=C(\c1ccccc1)c1ccccn1	57.1 µM	> 100 µM			30.8 µM	> 100 µM					82 µM	> 100 µM	37.1	> 100			43.5	> 100	60.3	> 100
O=C(Nc1ccc(Cl)cc1)c1cccc(NC2=C(Cl)C(=O)N(Cc3ccccc3)C2=O)c1	4.81 µM	41.2 µM	9.85 µM	21.5 µM	12.2 µM	26.9 µM	6.39 µM	19.7 µM	10.3 µM	42.3 µM	48.5 µM	> 100 µM	14.9	41.5	10.3 µM	24.3 µM				
COc1ccc(S(=O)(=O)NNS(C)(=O)=O)cc1		> 100 µM										> 100 µM		> 100				> 100		> 100
COc1cc(/C=C/c2cc(O)c(C(C)=O)c(O)c2)cc2c1O[C@]1(C)CC[C@@H](O)C(C)(C)[C@H]1C2	10.7 µM	34.5 µM	3.2 µM	61.6 µM	4.68 µM	35.7 µM	16.6 µM	> 100 µM	3.31 µM	22.2 µM	5.41 µM	45.4 µM	7.87	51.6	14.3 µM	65.8 µM				
Cn1cnc([N+](=O)[O-])c1S(=O)(=O)Oc1cccc2ccccc12	10 µM	32.1 µM	2.6 µM	11.5 µM	1.97 µM	4.72 µM	3.14 µM	8.03 µM	3.56 µM	14.5 µM	10.4 µM	31.4 µM	4.42	20	7.59 µM	33 µM				
CN(C)CCSC1=Nc2ccc(Cl)cc2C(c2ccccc2Cl)=NC1	15 µM and 97.1 µM	30.2 µM and > 100 µM	12.3 µM and 72.3 µM	31.7 µM and > 100 µM	12 µM and 37.8 µM	25.2 µM and > 100 µM	14.4 µM and 60.2 µM	30.5 µM and > 100 µM	12 µM and 67.4 µM	25.5 µM and > 100 µM	16.5 µM and 44.1 µM	34.3 µM and > 100 µM		> 100	15 µM and 42.4 µM	37.1 µM and > 100 µM				
NC1(C(=O)OCc2ccccc2)CCCC1		43.6 µM		38.4 µM		60.8 µM		37.5 µM		> 100 µM		> 100 µM		40.2		> 100 µM				
O=C(CCc1nnc2sc(-c3ccc(Cl)cc3Cl)nn12)c1nc2ncccc2[nH]1	1.76 µM	4.41 µM	1.19 µM	2.6 µM	1.64 µM	4.61 µM	1.92 µM	3.63 µM	2.59 µM	> 100 µM	1.83 µM	3.56 µM	2.59	7.27	2.71 µM	9.12 µM				
COc1ccc(-c2nnc(COc3ccc(NC(=O)Nc4cc(C(F)(F)F)cc(C(F)(F)F)c4)cc3F)o2)cc1	1.8 µM	4.38 µM	1.5 µM	4.58 µM	2.01 µM	6.06 µM	2.15 µM	4.84 µM	2 µM	5.04 µM	1.51 µM	3.7 µM	2.66	5.82	1.91 µM	5.16 µM				
COc1c(Cl)c(=O)oc2ccc(Cl)cc12		> 100 µM		> 100 µM		> 100 µM		> 100 µM		> 100 µM		> 100 µM		> 100		> 100 µM				
C[C@@H]1CCC2[C@@H](C)[C@@H](OCC(CO[C@H]3OC4O[C@@]5(C)CC[C@H]6[C@H](C)CCC([C@H]3C)[C@@]46OO5)OC(=O)CCC(=O)O)OC3O[C@@]4(C)CC[C@@H]1[C@]32OO4 (stereo not given in full)	0.0101 µM	11.3 µM	0.097 µM	3.26 µM	< 0.01 µM	12.8 µM	6.4 µM	27.3 µM	< 0.01 µM	16.7 µM	< 0.01 µM		4.22	> 51.6	0.245 µM	6.23 µM				
COC(=O)C1=C(C)NC(C)=C(C(=O)OCCCN2CCC(c3ccccc3)(c3ccccc3)CC2)C1c1cccc([N+](=O)[O-])c1 (stereo not given)		3.32 µM		4.26 µM		3.19 µM		3.31 µM		3.74 µM		3.21 µM		4.74		3.42 µM				
CN(C)c1nc(=Nc2ccc(N=c3nc(N(C)C)ss3)cc2)ss1		20.1 µM		> 100 µM		> 100 µM						> 100 µM		> 100				30.2		> 52.1
O=C(/C=C\c1ccc(Cl)c(Cl)c1)c1ccc(Cl)cc1Cl		14.1 µM			58 µM	> 100 µM						25.2 µM		41.9			12.6	26.8		21.2
c1ccc(COc2cccc3ccc[n+](Cc4ccccc4)c23)cc1		23.9 µM		34.2 µM		> 100 µM						15.7 µM		20.3				> 100		20.3
